Experimental data from PubChem BioAssay (NCI).
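1) Cells in 96-well plates. 2) Compound, 48 h, 5 concentrations. 3) Linear interpolation between surrounding doses. 4) Unreached endpoint = highest concentration. The concentration for full growth arrest is given as TGI.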 Where a SMILES comes first, the peptide text is derived from it. [ ]: non-standard residue; d: D form. The star is where a group is joined. Phe(4-NO2) = N[CH](Cc1ccc([N+](=O)[O-])cc1)C(=O)O; Cbz = O=C(OCc1ccccc1)*

Assays:
Test in all cases: NCI anticancer screen, dose series, 48 h
MDA-MB-231 breast = test system: MDA-MB-231 breast
SNB-75 CNS = test system: SNB-75 CNS
UACC-257 melanoma = test system: UACC-257 melanoma
SK-OV-3 ovarian = test system: SK-OV-3 ovarian
OVCAR-8 ovarian = test system: OVCAR-8 ovarian
SW-620 colon = test system: SW-620 colon
SR leukemia = test system: SR leukemia
SK-MEL-5 melanoma = test system: SK-MEL-5 melanoma
T-47D breast = test system: T-47D breast
COLO 205 colon = test system: COLO 205 colon
MALME-3M melanoma = test system: MALME-3M melanoma
SNB-19 CNS = test system: SNB-19 CNS
786-0 renal = test system: 786-0 renal
MOLT-4 leukemia = test system: MOLT-4 leukemia
MDA-MB-435 = test system: MDA-MB-435
SK-MEL-2 melanoma = test system: SK-MEL-2 melanoma

| SMILES | TGI (MDA-MB-231 breast) [µM] | TGI (SNB-75 CNS) [µM] | TGI (UACC-257 melanoma) [µM] | TGI (SK-OV-3 ovarian) [µM] | TGI (OVCAR-8 ovarian) [µM] | TGI (SW-620 colon) [µM] | TGI (SR leukemia) [µM] | TGI (SK-MEL-5 melanoma) [µM] | TGI (T-47D breast) [µM] | TGI (COLO 205 colon) [µM] | TGI (MALME-3M melanoma) [µM] | TGI (SNB-19 CNS) [µM] | TGI (786-0 renal) [µM] | TGI (MOLT-4 leukemia) [µM] | TGI (MDA-MB-435) [µM] | TGI (SK-MEL-2 melanoma) [µM] |
| --- | --- | --- | --- | --- | --- | --- | --- | --- | --- | --- | --- | --- | --- | --- | --- | --- |
| COC(=O)/C=C1/OC(c2ccccc2)=C(Br)C1=O | 66.3 | > 100 | > 100 | > 100 | > 100 | 36.7 | > 100 | > 100 | > 100 | > 100 | > 100 | > 100 | 81.6 | > 100 | > 100 | – |
| COC(=O)c1ccc(C)cc1C1CN=NC12Cc1c(C)cccc1C2=O (stereo not given) | > 100 | > 100 | > 81.8 | > 93.4 | > 92.4 | > 100 | > 80.2 | > 53.2 | 81.7 | 42.8 | > 90.3 | > 100 | > 100 | > 69.6 | > 71.2 | 98.3 |
| COc1ccc(/C=N/n2c(Cc3ccccc3)n[nH]c2=O)c(OC)c1 | > 62.7 | 28.6 | > 100 | > 60.7 | > 59.6 | > 100 | > 100 | > 100 | > 100 | > 31.6 | > 100 | > 77.5 | > 69 | > 100 | > 100 | > 100 |
| CCOP(=O)(OCC)/C(C#N)=C/c1cccn1C | > 100 | > 100 | > 100 | > 100 | > 100 | > 100 | > 100 | > 100 | > 100 | > 100 | > 100 | > 100 | > 100 | > 100 | > 100 | > 100 |
| NC(=S)N/N=C1\CCc2ccccc2C1 | > 100 | – | > 100 | > 100 | > 100 | > 100 | > 100 | – | > 100 | > 100 | > 100 | > 100 | > 100 | > 100 | > 100 | – |
| COP(=O)(OC)[C@@](O)(c1ccccc1)[C@@H](O)[C@@H](O)c1ccccc1 | > 100 | > 100 | > 100 | > 100 | > 100 | > 100 | 1.91 | > 100 | > 100 | > 100 | > 100 | > 100 | > 100 | – | > 100 | > 100 |
| COc1ccc(-n2c(C)nc3ccc(NC4OCC(OC(C)=O)C(OC(C)=O)C4OC(C)=O)cc3c2=O)cc1 (stereo not given) | > 100 | > 100 | > 100 | – | > 100 | > 100 | > 100 | > 100 | > 100 | > 100 | > 100 | > 100 | > 100 | > 100 | > 100 | > 100 |
| O=C(Cn1c(C(=O)/C=C/c2ccc(Cl)c(Cl)c2)nc2ccccc21)c1ccccc1 | 70.5 | – | > 100 | > 100 | – | > 100 | 80 | 35.4 | > 100 | 36.2 | 86.2 | 86.1 | 44 | > 100 | 42.4 | 47.1 |
| CC(C)(C)c1cc(C(C)(C)C)c(SSc2c(C(C)(C)C)cc(C(C)(C)C)c(O)c2O)c(O)c1O | 28 | 41.9 | 21.7 | – | 47.7 | 24 | 10.4 | 24 | 27.2 | 27.5 | 36 | 25.5 | 19.2 | 10.4 | 17.2 | 28.4 |
| COc1ccc(-n2c(C)nc3ccc(NC4OC(COC(C)=O)C(OC(C)=O)C(OC(C)=O)C4OC(C)=O)cc3c2=O)cc1 (stereo not given) | > 100 | > 100 | > 100 | – | > 100 | > 100 | > 100 | > 100 | > 100 | 49.4 | > 100 | > 100 | 65.3 | 80.8 | > 100 | > 100 |
| COC(=O)c1c(C)c2c(c(C)c1O)OC(=O)c1c(C)cc(O)c(C=O)c1O2 | > 100 | – | > 100 | > 100 | > 100 | > 100 | > 100 | > 100 | > 100 | > 100 | > 100 | > 100 | > 100 | > 100 | > 100 | – |
| CCOC(=O)C1Cc2ccc(C)cc2C1=O (stereo not given) | > 100 | > 100 | > 100 | > 100 | > 100 | > 100 | > 100 | > 100 | > 100 | > 100 | > 100 | – | > 100 | > 100 | > 100 | > 100 |
| N#Cc1ccc(N=NN2CCCC2)cc1 | > 100 | > 100 | > 100 | > 100 | > 100 | > 100 | > 100 | > 100 | > 100 | > 100 | – | > 100 | > 100 | > 100 | > 100 | > 100 |
| CC(C)(CO)CNc1nc(N)nc(Cl)c1C=O | > 100 | > 100 | > 100 | – | 68.1 | > 100 | 66.6 | > 100 | > 100 | 72.2 | > 100 | – | > 100 | 59 | 66.5 | 39.2 |
| CC(Oc1ccc(Cl)cc1Cl)C(=O)NN1C(=O)CC(=O)NC1=S (stereo not given) | > 100 | > 100 | > 100 | > 100 | > 100 | > 100 | > 100 | > 100 | > 100 | > 100 | > 100 | > 100 | > 100 | – | > 100 | > 100 |
| CCOC(=O)CCC(NC(=O)OCc1ccccc1)C(=O)NC(CCC(=O)OCC)C(=O)NC(CCC(=O)OCC)C(=O)NC(CCC(=O)OCC)C(=O)NC(CCC(=O)OCC)C(=O)NC(Cc1ccc([N+](=O)[O-])cc1)C(=O)NC(CCC(=O)OCC)C(=O)NC(CCC(=O)OCC)C(=O)NC(CCC(=O)OCC)C(=O)NC(CCC(=O)OCC)C(=O)NC(CCC(=O)OCC)C(=O)OCC (stereo not given) (Cbz-E(OEt)E(OEt)E(OEt)E(OEt)E(OEt)[Phe(4-NO2)]E(OEt)E(OEt)E(OEt)E(OEt)E(OEt)-OEt; configuration not given here) | > 5 | > 50 | – | > 50 | – | > 50 | > 50 | > 50 | > 50 | > 50 | > 50 | > 50 | > 50 | > 50 | > 50 | > 50 |
| O=C(NC1C(=O)NC(CCc2ccccc2)NC1=O)OCc1ccccc1 (stereo not given) | > 100 | > 100 | > 100 | – | > 100 | > 100 | > 100 | > 100 | > 100 | > 100 | > 100 | > 100 | > 100 | > 100 | > 100 | – |
| COc1ccc(-c2c(C#N)c(N)nc(Sc3ccccc3N)c2C#N)cc1 | 48.2 | – | > 100 | 32.6 | 45.7 | > 100 | > 100 | > 100 | 17.5 | > 100 | 42.4 | > 55.5 | 32.3 | > 100 | > 100 | 39.7 |
| c1ccc2c(c1)n1c(N3CCCC3)[n+]3ccccc3c1c1c3cccc[n+]3c(N3CCCC3)n21 | > 100 | 68.5 | > 100 | – | 93.3 | > 100 | > 100 | 65.8 | > 100 | 74.9 | > 100 | > 100 | > 100 | > 100 | > 100 | > 100 |
| C=C(Cl)C(Cl)(CBr)CCCC(C)C (stereo not given) | > 69.5 | 41.5 | 32.2 | > 100 | 47.6 | > 84 | > 100 | > 100 | > 41.4 | 34.9 | > 100 | 47.4 | 26.4 | > 100 | > 100 | – |
| CN(C)Cc1cc(C(=O)/C=C/c2ccc(Cl)cc2Cl)cc(CN(C)C)c1O | 6.53 | 16.7 | 17.6 | – | 11 | 11.3 | > 100 | 5.66 | 22.1 | 2.76 | 23.5 | 19.9 | 13.5 | 4.71 | 17.1 | – |
| CC1=NN(c2nc(N)nc(CCl)n2)C(C)(C)C1 | 85.7 | > 75.6 | > 100 | > 100 | > 55.5 | > 60.2 | > 69.7 | > 56 | > 100 | > 58 | – | > 100 | 15.9 | 50 | > 100 | > 100 |
